From ChEMBL document CHEMBL3885861, “Open TG-GATES”

Organism: Rattus norvegicus
Experiment: Open TG-GATES - Regimen: Single
Assay type: toxicity, organism-based, Sprague-Dawley
Design: regimen Single, gender Male, age 6 weeks
Details: in vivo, iv, route intravenous injection; for IP / K / LDH / Na / PL / RALB / TBIL / TC / TG / TP / gamma-GTP / A/G / ALP / ALT / AST / BUN / CRE / Ca / Cl / DBIL / GLC: tissue Plasma; for APTT / Bas / Eos / Fbg / Hb / Ht / Lym / MCH / MCHC / MCV / Mono / Neu / PT / Plat / RBC / Ret / WBC: tissue Blood; for KIDNEY_L / KIDNEY_R / KIDNEY_TOTAL: tissue Kidney; for LIVER: tissue Liver
[1] = 2 mg/kg, 6 h, dose level Middle
[2] = 2 mg/kg, 9 h, dose level Middle
[3] = 2 mg/kg, 24 h, dose level Middle

C[C@@H]1[C@H](O)[C@@H](C)/C=C/C=C/C=C/C=C/C=C/C=C/C=C/[C@H](O[C@@H]2O[C@H](C)[C@@H](O)[C@H](N)[C@@H]2O)C[C@@H]2O[C@](O)(C[C@@H](O)C[C@@H](O)[C@H](O)CC[C@@H](O)C[C@@H](O)CC(=O)O[C@H]1C)C[C@H](O)[C@H]2C(=O)O [AMPHOTERICIN B]
IP [1]: 11.3 mg/dL | K [1]: 5.5 meq/L | LDH [1]: 531 IU/L | Na [1]: 142.5 meq/L | PL [1]: 116.2 mg/dL | RALB [1]: 2.5 g/dL | TBIL [1]: 0.0675 mg/dL | TC [1]: 69 mg/dL | TG [1]: 41 mg/dL | TP [1]: 5.5 g/dL | gamma-GTP [1]: 3.2 IU/L | TERMINAL_BW [2]: 209.6 g | APTT [2]: 16.5 s | Bas [2]: 0% | Eos [2]: 0.2% | Fbg [2]: 288.2 mg/dL | Hb [2]: 13.5 g/dL | Ht [2]: 37.5% | Lym [2]: 59% | MCH [2]: 21.2 pg | MCHC [2]: 36% | MCV [2]: 59 fL | Mono [2]: 3.5% | Neu [2]: 35.8% | PT [2]: 12.8 s | Plat [2]: 147.9 x10_4/uL | RBC [2]: 634.8 x10_4/ul | Ret [2]: 7.8% | WBC [2]: 117.4 x10_2/uL | KIDNEY_L [2]: 1 g | KIDNEY_R [2]: 1 g | KIDNEY_TOTAL [2]: 2 g | LIVER [2]: 8.3 g | A/G [2]: 0.8 | ALP [2]: 1444 IU/L | ALT [2]: 39.5 IU/L | AST [2]: 80.8 IU/L | BUN [2]: 29.8 mg/dL | CRE [2]: 0.2 mg/dL | Ca [2]: 10.8 mg/dL | Cl [2]: 109.2 meq/L | DBIL [2]: 0.0225 mg/dL | GLC [2]: 171.5 mg/dL | IP [2]: 10.7 mg/dL | K [2]: 3.8 meq/L | LDH [2]: 64.8 IU/L | Na [2]: 145 meq/L | PL [2]: 139.8 mg/dL | RALB [2]: 2.5 g/dL | TBIL [2]: 0.0875 mg/dL | TC [2]: 83.5 mg/dL | TG [2]: 22.8 mg/dL | TP [2]: 5.6 g/dL | gamma-GTP [2]: 1.5 IU/L | TERMINAL_BW [3]: 219.6 g | APTT [3]: 14.8 s | Bas [3]: 0% | Eos [3]: 1% | Fbg [3]: 363 mg/dL | Hb [3]: 13.6 g/dL | Ht [3]: 39.2% | Lym [3]: 74% | MCH [3]: 20.6 pg | MCHC [3]: 34.7% | MCV [3]: 59.2 fL | Mono [3]: 2.7% | Neu [3]: 21.7% | PT [3]: 12.3 s | Plat [3]: 150.1 x10_4/uL | RBC [3]: 663 x10_4/ul | Ret [3]: 6.5% | WBC [3]: 92.3 x10_2/uL | KIDNEY_L [3]: 1 g | KIDNEY_R [3]: 1 g | KIDNEY_TOTAL [3]: 2 g | LIVER [3]: 10.1 g | A/G [3]: 0.8 | ALP [3]: 1322 IU/L | ALT [3]: 32.3 IU/L | AST [3]: 65 IU/L | BUN [3]: 22.7 mg/dL | CRE [3]: 0.2 mg/dL | Ca [3]: 11 mg/dL | Cl [3]: 106.7 meq/L | DBIL [3]: 0.0133 mg/dL | GLC [3]: 171.3 mg/dL | IP [3]: 7.6 mg/dL | K [3]: 4.3 meq/L | LDH [3]: 57.3 IU/L | Na [3]: 144 meq/L | PL [3]: 148.7 mg/dL | RALB [3]: 2.6 g/dL | TBIL [3]: 0.0567 mg/dL | TC [3]: 91.3 mg/dL | TG [3]: 64.7 mg/dL | TP [3]: 5.9 g/dL | gamma-GTP [3]: 1.3 IU/L | TERMINAL_BW (4 mg/kg, 24 h, dose level High): 207 g | APTT (4 mg/kg, 24 h, dose level High): 12.7 s | Bas (4 mg/kg, 24 h, dose level High): 0% | Eos (4 mg/kg, 24 h, dose level High): 1% | Fbg (4 mg/kg, 24 h, dose level High): 536 mg/dL | Hb (4 mg/kg, 24 h, dose level High): 14.3 g/dL | Ht (4 mg/kg, 24 h, dose level High): 37.3% | Lym (4 mg/kg, 24 h, dose level High): 55% | MCH (4 mg/kg, 24 h, dose level High): 21.1 pg | MCHC (4 mg/kg, 24 h, dose level High): 38.3% | MCV (4 mg/kg, 24 h, dose level High): 55.1 fL | Mono (4 mg/kg, 24 h, dose level High): 2% | Neu (4 mg/kg, 24 h, dose level High): 42% | PT (4 mg/kg, 24 h, dose level High): 11.1 s | Plat (4 mg/kg, 24 h, dose level High): 105.2 x10_4/uL | RBC (4 mg/kg, 24 h, dose level High): 676 x10_4/ul | Ret (4 mg/kg, 24 h, dose level High): 6.3% | WBC (4 mg/kg, 24 h, dose level High): 121.2 x10_2/uL | KIDNEY_L (4 mg/kg, 24 h, dose level High): 1.2 g | KIDNEY_R (4 mg/kg, 24 h, dose level High): 1.1 g | KIDNEY_TOTAL (4 mg/kg, 24 h, dose level High): 2.4 g | LIVER (4 mg/kg, 24 h, dose level High): 8.7 g | A/G (4 mg/kg, 24 h, dose level High): 0.7 | ALP (4 mg/kg, 24 h, dose level High): 1402 IU/L | ALT (4 mg/kg, 24 h, dose level High): 227 IU/L | AST (4 mg/kg, 24 h, dose level High): 699 IU/L | BUN (4 mg/kg, 24 h, dose level High): 53 mg/dL | CRE (4 mg/kg, 24 h, dose level High): 0.3 mg/dL | Ca (4 mg/kg, 24 h, dose level High): 11 mg/dL | Cl (4 mg/kg, 24 h, dose level High): 108 meq/L | DBIL (4 mg/kg, 24 h, dose level High): 0.03 mg/dL | GLC (4 mg/kg, 24 h, dose level High): 160 mg/dL | IP (4 mg/kg, 24 h, dose level High): 8 mg/dL | K (4 mg/kg, 24 h, dose level High): 4.1 meq/L | LDH (4 mg/kg, 24 h, dose level High): 117 IU/L | Na (4 mg/kg, 24 h, dose level High): 146 meq/L | PL (4 mg/kg, 24 h, dose level High): 111 mg/dL | RALB (4 mg/kg, 24 h, dose level High): 2.5 g/dL | TBIL (4 mg/kg, 24 h, dose level High): 0.1 mg/dL | TC (4 mg/kg, 24 h, dose level High): 76 mg/dL | TG (4 mg/kg, 24 h, dose level High): 13 mg/dL | TP (4 mg/kg, 24 h, dose level High): 6.1 g/dL | gamma-GTP (4 mg/kg, 24 h, dose level High): 2 IU/L
